Measurements reported in patent US6506766B1 (Abbott Laboratories, priority 1998, dated 2003).

Experiments:
[1] = target: T1, human progesterone receptor-A [PRA] isoform (Homo sapiens, UniProt P06401); experiment: Radioligand binding with human progesterone receptor cytosol ([3H]-progesterone competition); details: PRA cytosol expressed in insect SF21 cells, [3H]Prog ~0.8 nM, 4° C. overnight; Ki by Cheng-Prusoff, KL ~4.5 nM; read-out: Ki (nM) PR
T1 construct: host or cells: insect SF21 cells (baculovirus)
T1 sequence (P06401 1-769 isoform P06401-2): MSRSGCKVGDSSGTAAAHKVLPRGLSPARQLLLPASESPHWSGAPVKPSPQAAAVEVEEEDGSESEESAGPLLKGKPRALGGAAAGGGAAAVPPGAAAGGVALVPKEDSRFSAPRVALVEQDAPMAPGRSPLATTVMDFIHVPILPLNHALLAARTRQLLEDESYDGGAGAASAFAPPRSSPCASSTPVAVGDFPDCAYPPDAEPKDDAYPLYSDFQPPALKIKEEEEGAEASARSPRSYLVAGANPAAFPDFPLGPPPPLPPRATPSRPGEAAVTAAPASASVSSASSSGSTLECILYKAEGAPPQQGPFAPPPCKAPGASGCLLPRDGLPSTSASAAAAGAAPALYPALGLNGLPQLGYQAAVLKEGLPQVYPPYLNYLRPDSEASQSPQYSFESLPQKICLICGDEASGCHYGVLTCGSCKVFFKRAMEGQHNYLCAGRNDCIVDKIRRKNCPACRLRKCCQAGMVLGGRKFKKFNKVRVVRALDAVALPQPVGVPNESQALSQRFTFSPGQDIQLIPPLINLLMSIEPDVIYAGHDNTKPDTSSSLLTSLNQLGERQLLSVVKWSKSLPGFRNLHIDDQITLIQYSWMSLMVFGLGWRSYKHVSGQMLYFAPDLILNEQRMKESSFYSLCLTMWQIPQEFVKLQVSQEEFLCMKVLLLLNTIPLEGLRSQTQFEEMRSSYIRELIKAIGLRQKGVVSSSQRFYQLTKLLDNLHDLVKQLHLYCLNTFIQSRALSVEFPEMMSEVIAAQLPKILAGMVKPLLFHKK

[2] = target: T2, human glucocorticoid receptor-α [GRX] isoform (Homo sapiens, UniProt P04150); experiment: Radioligand binding with human glucocorticoid receptor cytosol ([3H]-dexamethasone competition); details: GRX cytosol expressed in insect SF21 cells, [3H]-Dex ~0.9 nM, 4° C. overnight; Ki by Cheng-Prusoff, KL ~[…]; read-out: Ki (nM) GR
T2 construct: host or cells: insect SF21 cells (baculovirus)
T2 sequence (P04150 1-777): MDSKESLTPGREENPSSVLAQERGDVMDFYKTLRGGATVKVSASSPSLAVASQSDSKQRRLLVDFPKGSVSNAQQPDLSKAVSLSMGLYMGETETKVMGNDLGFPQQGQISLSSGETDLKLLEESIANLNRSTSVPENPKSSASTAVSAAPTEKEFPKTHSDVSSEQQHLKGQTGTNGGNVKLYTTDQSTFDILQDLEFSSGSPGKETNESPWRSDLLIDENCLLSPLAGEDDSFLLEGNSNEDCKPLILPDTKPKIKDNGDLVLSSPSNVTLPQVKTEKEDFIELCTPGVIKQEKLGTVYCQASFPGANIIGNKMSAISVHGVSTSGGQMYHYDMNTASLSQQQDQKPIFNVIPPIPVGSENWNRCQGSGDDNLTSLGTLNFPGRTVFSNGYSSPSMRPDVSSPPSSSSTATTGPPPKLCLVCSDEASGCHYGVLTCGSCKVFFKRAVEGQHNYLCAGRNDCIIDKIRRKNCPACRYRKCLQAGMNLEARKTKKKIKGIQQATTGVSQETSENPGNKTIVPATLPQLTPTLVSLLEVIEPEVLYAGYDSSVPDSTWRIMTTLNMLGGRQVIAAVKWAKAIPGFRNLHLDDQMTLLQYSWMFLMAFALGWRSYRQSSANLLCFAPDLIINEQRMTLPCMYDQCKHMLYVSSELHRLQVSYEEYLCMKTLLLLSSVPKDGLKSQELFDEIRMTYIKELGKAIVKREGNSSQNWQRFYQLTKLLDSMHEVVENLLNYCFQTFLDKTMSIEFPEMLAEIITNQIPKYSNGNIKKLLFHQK

Row | Ki [1] [nM] | Ki [2] [nM] | SMILES
1 | 611 | 12.1 | C=CCC1Oc2ccc(OC)c(OC)c2-c2ccc3c(c21)C(C)=CC(C)(C)N3 (stereo not drawn) [Example 290, 9,10-Dimethoxy-5-(3-propenyl)-2,2,4-trimethyl-1H-2,5-dihydro-[1]benzopyrano[3,4-f]quinoline]
2 | 8340 | 487 | C=CCC1Oc2ccc(OCC)c(OC)c2-c2ccc3c(c21)C(C)=CC(C)(C)N3 (stereo not drawn) [Example 292, 10-Methoxy-9-ethoxy-5-(3-propenyl)-2,2,4-trimethyl-1H-2,5-dihydro-[1]benzopyrano[3,4-f]quinoline]
3 | 1810 | 13.8 | C#CCOc1ccc2c(c1OC)-c1ccc3c(c1C(CC=C)O2)C(C)=CC(C)(C)N3 (stereo not drawn) [Example 294, 10-Methoxy-9-(3-propynyloxy)-5-(3-propenyl)-2,2,4-trimethyl-1H-2,5-dihydro[1]benzopyrano[3,4-f]quinoline]
4 | 476 | 0.63 | C=CCC1Oc2ccc(OC(=O)CCC(=O)N(C)C)c(OC)c2-c2ccc3c(c21)C(C)=CC(C)(C)N3 (stereo not drawn) [Example 296, 2,5-Dihydro-9-(4-N,N-dimethylamino-4-oxo-butanoyloxy)-10-methoxy-2,2,4-trimethyl-5(2-propenyl)-1H-[1]benzopyrano[3,4-f]quinoline]
5 | 4840 | 4.7 | COc1ccc(Br)c2c1-c1ccc3c(c1C(C1C=CCCC1)O2)C(C)=CC(C)(C)N3 (stereo not drawn) [Example 297]

Continued, compound first:

Row | SMILES | Ki [1] [nM] | Ki [2] [nM]
6 | COc1c(O)ccc2c1-c1ccc3c(c1CO2)C(C)=CC(C)(C)N3 [Example 279, 2,5,5-Trihydro-9-hydroxy-10-methoxy-2,2,4-trimethyl-1H-[1]benzopyrano[3,4-f]quinoline] | 1900 | 12.4
7 | C=C(CO)CC1Oc2ccc(O)c(OC)c2-c2ccc3c(c21)C(C)=CC(C)(C)N3 (stereo not drawn) [Example 280, 2,5-Dihydro-9-hydroxy-10-methoxy-2,2,4-trimethyl-5-(2-hydroxymethyl-3-propenyl)-1H-[1]benzopyrano[3,4-f]quinoline] | ≥ 10000 | 1.6
8 | COC(=O)CC1Oc2ccc(O)c(OC)c2-c2ccc3c(c21)C(C)=CC(C)(C)N3 (stereo not drawn) [Example 281, Methyl 2-[2,5-Dihydro-9-hydroxy-10-methoxy-2,2,4-trimethyl-1H-[1]benzopyrano[3,4-f]-5-quinoline]acetate] | 526 | 0.84
9 | C/C=C\CC1Oc2ccc(O)c(OC)c2-c2ccc3c(c21)C(C)=CC(C)(C)N3 (stereo not drawn) [Example 282, (Z)2,5-Dihydro-9-hydroxy-10-methoxy-2,2,4-trimethyl-5-(2-butenyl)-1H-[1]benzopyrano[3,4-f]quinoline] | 42 | 0.5
10 | COc1c(O)ccc2c1-c1ccc3c(c1C(CC=C(C)C)O2)C(C)=CC(C)(C)N3 (stereo not drawn) [Example 283, 2,5-Dihydro-9-hydroxy-10-methoxy-2,2,4-trimethyl-5-(3-methyl-2-butenyl)-1H-[1]benzopyrano[3,4-f]quinoline] | 60.4 | 1.1
11 | COc1c(O)ccc2c1-c1ccc3c(c1[C@@H]([C@H]1C=CCCC1)O2)C(C)=CC(C)(C)N3 [Example 285] | 3760 | 436
12 | COc1c(O)ccc2c1-c1ccc3c(c1[C@@H]([C@@H]1C=CCC1)O2)C(C)=CC(C)(C)N3 [Example 286] | 3030 | 64
13 | COc1c(O)ccc2c1-c1ccc3c(c1[C@@H]([C@H]1C=CCC1)O2)C(C)=CC(C)(C)N3 [Example 287] | 3500 | 346
14 | C=C(C)CC1Oc2ccc(O)c(OC)c2-c2ccc3c(c21)C(C)=CC(C)(C)N3 (stereo not drawn) [Example 289, 2,5-Dihydro-9-hydroxy-10-methoxy-2,2,4-trimethyl-5-(2-methyl-3-propenyl)-1H-[1]benzopyrano[3,4-f]quinoline] | 260 | 0.73
15 | C=CCC1Oc2ccc(OC(C)=O)c(OC)c2-c2ccc3c(c21)C(C)=CC(C)(C)N3 (stereo not drawn) [Example 295, 2,5-Dihydro-9-acetoxy-10-methoxy-2,2,4-trimethyl-5-(2-propenyl)-1H-[1]benzopyrano[3,4-f]quinoline] | 59.3 | 0.67
